Columns and labels:
[1] = system: phosphorylated myosin light chain; assay: Western blot of phosphorylated myosin light chain (MLC) in ARPE-19 cells under hyperglycemic conditions; type: cell-based, human; details: ARPE-19, DMEM High glucose 7% FCS overnight; 10 nM; western blot
Experimental: A Hallmark of Age-Associated Ocular and Neurodegenerative Disorders is Cytoskeletal Alteration and Induction of CONTRACTILE Stress Fiber Formation. Expression and activation via phosphorylation of Myosin Light Chain (MLC), is a biomarker of disease development. ARPE-19 cells and ARPE-19 cells specifying 5-HT2AR knockouts were plated in nutrient rich media (DMEM; 7% FCS) overnight. Cells were fixed, permeabilized, and stained phalloidin and α-phosphorylated-Myosin light chain. Cytoskeletal elements were then visualized by fluorescent microscopy to visualize actin fiber cytoskeletal structures (phalloidin, red) and contractile phosphorylated myosin light chain (green) via fluorescent microscopy. […] ARPE-19 cells were cultured under hyperglycemic conditions in nutrient rich media (DMEM High glucose; 7% FCS) overnight either in the absence or presence of 5-HT2A receptor agonists R-DOI and 2CiBu at 10 nm or 100 nM concentrations. The relative expression of the activated disease biomarker contractile phosphorylated myosin light chain was determined using specific antibodies and western blot analysis. 5-HT2A agonists. […] Therefore, 5-HT2A agonism at low concentrations have the potential to prevent and reverse deleterious cytoskeletal events that can be induced under hyperglycemic conditions, such as in diabetics.
This can be consistent with 2C-iBu being able to regulate IOP and that 5HT2A agonists prevented edema formation and disruption of corneal architecture in a model of herpetic keratitis.

[2] = system: mitofusin2 and TOMM20; assay: Western blot of mitofusin2 and TOMM20 in ARPE-19 cells; type: cell-based, human; details: all concentrations; 48 h post treatment; DMEM 7% FCS
Source text: Representative 5-HT2A Receptor Agonist, R-DOI, Increases Mitochondrial Biogenesis and Quality by Inducing Mitochondrial Fusion at low nM concentrations thereby reversing adverse processes that underlie development and progression of the Pathophysiology of Age-Associated Ocular and Neurodegenerative Diseases. Consistent with the Maintenance of Functional Mitochondria and Mitochondrial Health, Serotonin 2A Receptor Agonism, Like with R-DOI, Increases Enzymatic BioMarkers of Mitochondrial Fusion (Mitofusin2) and Biogenesis (TOMM20). ARPE-19 cells were grown in DMEM 7% FCS containing the indicated concentrations of R-DOI. 48 h post treatment, cell samples were lysed and normalized prior to running western blots to evaluate mitofusin2 and TOMM20 protein expression. […] Mitofusion2 functions to regulate mitochondrial fusion. TOMM20 imports proteins through the outer membrane and is a marker of biogenesis and number.

[3] = system: intracellular H2O2; assay: Intracellular H2O2 (ROS-Glo bioluminescence) in ARPE-19 cells at diabetic glucose concentrations; type: cell-based, human; details: 10 nM; glucose 5, 10, 20, 30 mM; 72 hours
Experimental: Hyperglycemic conditions induce increased disease promoting ROS production that is abrogated by low nM concentrations of the Representative 5-HT2A Receptor Agonist. R-DOI Returning to Base-line Homeostatic Levels. ARPE-19 cells were plated using physiological media (HPLM; 7% FCS) overnight prior to starvation (HPLM 0.5% FCS) overnight with or without 10 nM R-DOI. Cells were then replaced with HPLM 7% FCS containing a range of glucose concentrations spanning diabetic blood glucose levels (5 mM, 10 mM, 20 mM, and 30 mM) with or without the addition of 10 nM R-DOI for 72-hours. Cells were then lysed to quantify intracellular H2O2 levels via bioluminescence as described above. Low dose 5-HT2A agonists abrogate the hyperglycemic induced induction od ROS that is pathophysiological for development and progression of neurodegenerative and ocular age-related diseases, especially within diabetic patients, or patients that have conditions that induce increased levels of blood glucose. Pathological glucose concentrations increase intracellular H2O2. 5-HT2AR agonism alleviates glucose-induced intracellular H2O2 at diabetic glucose concentrations.
Evaluating intracellular reactive oxygen species (ROS) levels (FIG. 67). Promega's ROS-Glo H2O2 assay enables researchers to evaluate intracellular ROS levels. […]

[4] = system: SIRT1 and 3; assay: Western analysis of Sirtuin (SIRT) 1 and 3 expression; type: cell-based; details: varying concentrations, increased as concentrations decreased to nM
Source text: Sirtuins utilize NAD to suppress pathophysiological processes of aging, including diabetic retinopathies, AMD and Neurodegeneration. Representative western analysis of Sirtuin (SIRT) 1 and 3 expression following cellular treatment with the representative 5-HT2A Receptor agonist R-DOI at varying concentrations.

[5] = system: ARPE cells; assay: Mitochondrial biomass and potential (MitoTracker staining / flow cytometry) in ARPE cells; type: cell-based, human; details: 10 fold dilutions 100 nM to 0.001 nM; 48 hours
Experimental: Representative 5-HT2A Receptor Agonist, R-DOI, Increases Mitochondrial Biogenesis and Function at low nM to sub nanomolar concentrations thereby reversing adverse processes that underlie development and progression of the Pathophysiology of Age-Associated Ocular and Neurodegenerative Diseases. ARPE cells were plated and treated with 10 fold dilutions of R-DOI from 100 nM to 0.001 nM. 48 hours post treatment, mitochondrial biomass was assessed either by staining for mitochondria using mitotracker (green, left panel) or via flow cytometry using MitoTracker Red CMOXROS that assesses both mitochondrial biomass and mitochondrial potential.

[6] = system: ARPE cells; assay: Mitochondrial function and ATP production by Seahorse in ARPE cells; type: cell-based, human; details: 10 fold dilutions 100 nM to 0.001 nM; 48 hours
Experimental: Representative 5-HT2A Receptor Agonist, R-DOI Increases Mitochondrial Function And ATP Production at low nM and sub nanomolar concentrations thereby reversing adverse processes that underlie development and progression of the Pathophysiology of Age-Associated Ocular and Neurodegenerative Diseases. ARPE cells were plated and treated with 10 fold dilutions of R-DOI from 100 nM to 0.001 nM. 48 hours post treatment, mitochondrial function and ATP production was assessed by Seashorse.

[7] = system: ARPE cells; assay: Cumene hydroperoxide induced lipid peroxidation in ARPE cells (BODIPY); type: cell-based, human; details: 100 nM and 1 nM overnight; 100 uM cumene hydroperoxide
Experimental: Representative 5-HT2A Receptor Agonist, R-DOI, Decreases Oxidative stress induced lipid peroxidation at low nM concentrations thereby reversing adverse processes that underlie development and progression of the Pathophysiology of Age-Associated Ocular and Neurodegenerative Diseases. ARPE cells were plated and mock treated or treated with the 5HT2A agonist R-DOI at 100 nM or 1 nM concentrations. Following an overnight incubation, live ARPE cells were labeled with an lipid peroxidation indicator dye BODIPY that changes fluorescence from red to green as it becomes oxidized. Cells were subsequently treated with 100 uM cumene hydroperoxide to induce lipid peroxidation and cellular oxidative stress and imaged in the red and green channels to assess the protective effects of 5HT2A agonists on lipid peroxidation. In the absence of 5HT2A agonists, there was a clear increase in green fluorescence present following treatment with cumene hydroperoxide.

Compound: COc1cc(C[C@@H](C)N)c(OC)cc1I (single isomer, unassigned) [R-DOI, R enantiomer 2,5-Dimethoxy-4-iodoamphetamine]
- hyperglycemia induced phosphorylated MLC levels [1]: suppressed hyperglycemia induced phosphorylated MLC levels
- Mitofusin 2 protein expression [2]: increased expression of Mitofusin 2
- TOMM20 protein expression (mitochondrial biomass) [2]: increased mitochondrial biomass (TOMM20)
- hyperglycemia induced ROS production (intracellular H2O2) [3]: abrogated
- SIRT1 and 3 expression [4]: induced
- SIRT1 and 3 expression ([4]; listed as (R)-DOI): upregulates SIRT1
- mitochondrial biomass and mitochondrial potential [5]: increased both mitochondrial biomass and potential
- ATP production and mitochondrial respiration [6]: increased ATP production and mitochondrial respiration
- oxidative stress induced lipid peroxidation [7]: abrogated lipid peroxidation

Source: US20260256716A1, “COMPOSITIONS AND METHODS OF USE THEREOF” (Board of Supervisors of Louisiana State University and …, priority 2023, published 2026)
